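How tested: cells in 96-well plates exposed to compound for 48 hours at five concentrations. Abbreviation: GI50, concentration required for 50% inhibition of growth. Definition used: TGI = concentration required for complete inhibition of growth.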
Assays:
Experiment in all cases: growth of human tumour cells (NCI), 48 h
ACHN renal = tested on: ACHN renal
DU-145 prostate = tested on: DU-145 prostate
HCC-2998 colon = tested on: HCC-2998 colon
MDA-MB-231 breast = tested on: MDA-MB-231 breast
MDA-N = tested on: MDA-N
SF-539 CNS = tested on: SF-539 CNS
SK-MEL-5 melanoma = tested on: SK-MEL-5 melanoma
SNB-19 CNS = tested on: SNB-19 CNS
T-47D breast = tested on: T-47D breast

SMILES	TGI (ACHN renal)	TGI (DU-145 prostate)	TGI (HCC-2998 colon)	TGI (MDA-MB-231 breast)	TGI (MDA-N)	TGI (SF-539 CNS)	TGI (SK-MEL-5 melanoma)	TGI (SNB-19 CNS)	TGI (T-47D breast)	GI50 (ACHN renal)	GI50 (MDA-MB-231 breast)	GI50 (SNB-19 CNS)	GI50 (T-47D breast)	GI50 (DU-145 prostate)	GI50 (HCC-2998 colon)	GI50 (SF-539 CNS)	GI50 (SK-MEL-5 melanoma)
Cc1nc2ccccc2n1CCc1nc2ccccc2[nH]1	> 100 µM	> 100 µM	> 100 µM	> 100 µM	> 100 µM	> 100 µM	> 100 µM	> 100 µM	> 100 µM								
NC(=S)NS(=O)(=O)c1ccc(Cl)cc1Cl	> 100 µM	> 100 µM	> 100 µM	> 100 µM	> 100 µM	> 100 µM	> 100 µM	> 100 µM	> 100 µM								
CC[N+]1(C)CCC(O)(/C=C/c2ccc(Cl)c(Cl)c2)C(C(=O)/C=C/c2ccc(Cl)c(Cl)c2)C1 (stereo not drawn)	4.15 µM	6.87 µM	3.96 µM			9.13 µM	7.68 µM	17.3 µM	4.87 µM								
C=CC(=O)N1C/C(=C\c2ccc(F)cc2)C(=O)/C(=C/c2ccc(F)cc2)C1	0.715 µM	13.5 µM	1.15 µM			0.653 µM	3.35 µM	3.72 µM	39.7 µM								
CCCCCCCCCC[C@@H](O)[C@H]1CC[C@@H]([C@H]2CC[C@H]([C@H](O)CCCCCCCCCC[C@@H]3CC(CC(C)=O)C(=O)O3)O2)O1 (stereo partly drawn)			62.5 µM	> 100 µM			16.2 µM	> 100 µM	69.4 µM	14.6 µM	22.8 µM	18.3 µM	2.99 µM				
CC(C)(CN1CCCCC1)C(=O)CC(SCCS(=O)(=O)O)c1ccc(Cl)c(Cl)c1 (stereo not drawn)	9.03 µM	23.4 µM	26.2 µM	4.82 µM	8.4 µM	6.23 µM	21.1 µM	23.1 µM									
C=C1C[C@]23CC[C@@H]4C(CO)(CO)CC(=O)C[C@]4(C)[C@@H]2C(O)C[C@H]1C3 (stereo partly drawn)	> 100 µM	> 100 µM	> 100 µM	> 100 µM	> 100 µM	> 100 µM		> 100 µM									
Cn1c(=O)c2[nH]cnc2n(C)c1=O	> 100 µM	> 100 µM	> 100 µM	> 100 µM	> 100 µM		> 100 µM		> 100 µM								
O=C(n1c(=O)n(-c2ccc([N+](=O)[O-])cc2)c(=O)n1C(=O)C(Cl)(Cl)Cl)C(Cl)(Cl)Cl	> 100 µM	> 100 µM	> 100 µM	> 100 µM	> 100 µM	> 100 µM	> 100 µM	> 100 µM	> 100 µM								
Cc1ccc(N=Nc2cc(=O)[nH]c(=O)[nH]2)cc1C	24.4 µM	27.9 µM	19.9 µM	24.2 µM	24.7 µM	27.6 µM	30.4 µM	35.2 µM									
Oc1cc(Br)cc2cc(Br)cnc12	47.4 µM	60.8 µM	57.3 µM	88.2 µM	> 100 µM	> 100 µM	31.7 µM	> 100 µM	8.41 µM								
C=C1C(=O)O[C@H]2[C@@H](O)[C@H](C)CCC/C(C)=C/CC[C@@]3(C)O[C@@H]3C[C@@H]12	6.16 µM	19.1 µM	26 µM	31.7 µM	25.6 µM	11.8 µM	28.1 µM	37.5 µM	12.3 µM								
CCCS(=O)OC1C(C2COC(C)(C)O2)OC2OC(C)(C)OC21 (stereo not drawn)	26.9 µM	47.3 µM	32.6 µM	32.6 µM	> 70.6 µM	38.4 µM	27.7 µM	30.8 µM	> 69.6 µM								
CC(C)=CCC/C(C)=C/CCC1(C)C2COC(=O)C21 (stereo not drawn)	> 100 µM	> 100 µM	> 100 µM	> 100 µM	> 100 µM		91.7 µM	> 100 µM									
CC(C)(C)OC(=O)N[C@@H](Cc1ccccc1)C(=O)N1CC[C@@H](C(=O)N2[C@H]3CC4CC[C@@]3(CS2(=O)=O)C4(C)C)N1	> 100 µM	> 100 µM	> 100 µM	> 100 µM	> 100 µM		75 µM	> 100 µM	51.1 µM								
O=c1oc2ccccc2cc1-c1nc2ccccc2s1	> 20.1 µM	43.7 µM	> 100 µM	27.6 µM	> 61.1 µM		> 75.1 µM										
CN1C(C(=O)Nc2ccccn2)=C(O)c2ccccc2S1(=O)=O	> 100 µM	> 100 µM			> 100 µM	> 100 µM	> 100 µM	> 100 µM	> 100 µM								
CCn1c2ccccc2c2cc(NC(=O)c3c(C)[nH]c(=O)[nH]c3=S)ccc21		> 100 µM	> 100 µM	58.1 µM	> 100 µM		> 100 µM	> 100 µM	> 100 µM								
Brc1ccc2[nH]cc(-c3nc(-c4c[nH]c5ccncc45)cs3)c2c1	3.16 µM	3.07 µM	3.6 µM	2.95 µM		3.11 µM	2.98 µM			1.77 µM	1.52 µM			1.68 µM	1.98 µM	1.72 µM	1.61 µM

SMILES	TGI (ACHN renal)	TGI (DU-145 prostate)	TGI (HCC-2998 colon)	TGI (MDA-MB-231 breast)	TGI (MDA-N)	TGI (SF-539 CNS)	TGI (SK-MEL-5 melanoma)	TGI (SNB-19 CNS)	TGI (T-47D breast)	GI50 (ACHN renal)	GI50 (MDA-MB-231 breast)	GI50 (SNB-19 CNS)	GI50 (T-47D breast)	GI50 (DU-145 prostate)	GI50 (HCC-2998 colon)	GI50 (SF-539 CNS)	GI50 (SK-MEL-5 melanoma)
Nc1ncc(Cc2nn3c(COc4ccc(Cl)cc4)nnc3s2)s1	14 µM	> 100 µM	> 100 µM	> 100 µM		> 100 µM	> 100 µM	> 100 µM	> 100 µM								
OCC1=C[C@@](COCc2ccccc2)(OCc2ccccc2)[C@@H](OCc2ccccc2)[C@@H]1OCc1ccccc1	> 100 µM	> 100 µM	32.3 µM	25.4 µM	53.6 µM		30.5 µM	> 100 µM	82.8 µM								
N#Cc1nc(Cc2cccs2)oc1N	> 100 µM	> 100 µM		> 100 µM	> 100 µM		> 100 µM	> 100 µM									
c1csc(-c2csc(-c3cccs3)c2)c1	> 100 µM	> 100 µM	> 100 µM	> 100 µM		> 100 µM	38.8 µM	> 100 µM	> 100 µM								
CC(=O)Nc1oc(C)nc1C#N	> 100 µM	> 100 µM		> 100 µM	> 100 µM		> 100 µM	> 100 µM									
O=C(O)C1(Cc2ccc3c(c2)CCC3)Cc2cc3c(cc2C1)CCC3	> 100 µM	> 100 µM	> 100 µM		> 100 µM	> 100 µM	> 100 µM	> 100 µM									
O=[N+]([O-])c1ccc(-c2nc3ccccc3o2)cc1	> 100 µM	> 100 µM	> 100 µM		> 100 µM	> 100 µM	> 100 µM	> 100 µM	> 100 µM								
CC(=O)Oc1ccc(-c2c(OC(C)=O)c(OC(C)=O)c(-c3ccc(OC(C)=O)c(OC(C)=O)c3)c(OC(C)=O)c2OC(C)=O)cc1	30.8 µM	29.8 µM		35.4 µM	31.5 µM	34.3 µM	25.5 µM	32.6 µM	29.2 µM								
COC(=O)C[C@H]1[C@]2(C)C3=C(C)[C@H](c4ccoc4)CC3O[C@@H]2[C@@H]2OC(=O)[C@]3(C)CCC(=O)[C@@]1(C)[C@@H]23 (stereo partly drawn)	> 100 µM	> 100 µM		> 100 µM	> 100 µM		> 100 µM		> 100 µM								
O=C1C(=O)C(CCCO)(CCCO)CCCCCCCCC1(CCCO)CCCO	> 100 µM	> 100 µM	> 100 µM		> 100 µM	> 100 µM	> 100 µM	> 100 µM	> 100 µM								
CCCCC[C@@H]1OC(=O)[C@@]2(CC3c4ccccc4C2c2ccccc23)[C@H]1C(=O)OC	> 100 µM	> 100 µM	> 100 µM	> 100 µM	> 100 µM		39.2 µM	> 100 µM									
CNc1ccc([N+](=O)[O-])cc1C(=O)N1CCC[C@H]1CO	> 100 µM	> 100 µM	> 100 µM	> 100 µM	> 100 µM		> 100 µM	> 100 µM	> 100 µM								
CN(NC(=O)/C(=C/C=C/c1ccccc1)NC(=O)c1ccccc1)C1=C(Cl)C(=O)[N+](c2ccccc2)=CC1	81 µM	> 100 µM		37.5 µM	37.5 µM	38 µM	27.4 µM	80.2 µM	38.8 µM								
Cc1cccc(-c2cc(=O)c3c(C)ccnc3[nH]2)c1	> 100 µM	> 100 µM	11.1 µM	> 100 µM		> 100 µM	27.8 µM		> 100 µM								
Cn1c(=O)n2n(c1=O)C1C(=CC2)C2C=CC1n1c(=O)n(C)c(=O)n12 (stereo not drawn)	> 100 µM	> 100 µM		> 100 µM	> 100 µM	> 100 µM	> 100 µM	> 100 µM	> 100 µM								
O=c1[nH]nc(Cc2ccc([N+](=O)[O-])cc2)[nH]1	> 100 µM	> 100 µM	> 100 µM		> 100 µM	> 100 µM	> 100 µM	> 100 µM	> 100 µM								
COc1ccc(N2C(=O)CSC2c2cc(OC)c(OC)c(OC)c2)cc1 (stereo not drawn)	40.9 µM	72.2 µM	39.9 µM	78.1 µM	55.9 µM	> 100 µM	87.2 µM	80.8 µM									
COC(=O)C1CC(C=O)=C(SC)N1 (stereo not drawn)	> 50 µM	> 50 µM	> 50 µM	> 50 µM	> 50 µM		> 50 µM	> 50 µM									
